Measured values from patent US8859571B2, “Quinazoline compounds” (GlaxoSmithKline LLC, priority 2009, dated 2014).
Counter-ions that a name gives are not always drawn.

Biological target: T1, Full length human TNNI3K (hTNNI3K) (Homo sapiens, UniProt Q59H18)
T1 construct: His-MBP-TEV-Full length human TNNI3K (hTNNI3K); His (N); MBP (N); TEV cleavage site (N); made in house; host or cells: baculovirus system (printed 'Baculokinase system')
T1 sequence (Q59H18 1-835): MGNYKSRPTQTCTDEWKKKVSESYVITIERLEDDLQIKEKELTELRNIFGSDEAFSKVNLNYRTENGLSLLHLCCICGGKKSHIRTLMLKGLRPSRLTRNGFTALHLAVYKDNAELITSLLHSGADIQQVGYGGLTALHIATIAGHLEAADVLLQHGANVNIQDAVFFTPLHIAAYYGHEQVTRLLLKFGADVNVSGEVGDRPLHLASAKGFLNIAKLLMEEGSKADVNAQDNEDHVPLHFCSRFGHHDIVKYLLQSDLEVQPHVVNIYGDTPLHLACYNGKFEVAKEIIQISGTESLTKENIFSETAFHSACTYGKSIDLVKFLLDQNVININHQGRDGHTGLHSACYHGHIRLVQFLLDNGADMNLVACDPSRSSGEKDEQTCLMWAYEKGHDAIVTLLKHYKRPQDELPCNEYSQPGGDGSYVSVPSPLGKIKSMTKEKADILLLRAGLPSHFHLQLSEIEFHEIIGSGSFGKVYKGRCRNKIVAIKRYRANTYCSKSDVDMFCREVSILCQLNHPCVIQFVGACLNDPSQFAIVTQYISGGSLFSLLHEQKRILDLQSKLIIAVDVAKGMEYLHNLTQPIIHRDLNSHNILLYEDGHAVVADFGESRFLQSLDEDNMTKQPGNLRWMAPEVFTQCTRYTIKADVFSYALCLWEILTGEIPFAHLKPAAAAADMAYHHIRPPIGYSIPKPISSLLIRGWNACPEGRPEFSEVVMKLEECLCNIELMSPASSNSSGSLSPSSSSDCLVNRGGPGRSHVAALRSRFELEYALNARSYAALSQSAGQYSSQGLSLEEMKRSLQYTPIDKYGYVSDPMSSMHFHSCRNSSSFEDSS
Assay: Fluorescent polarization assay of compound inhibition on hTNNI3K ATP binding (Biological Assay Method I)
Conditions: displacement of fluorescent ligand from hTNNI3K ATP binding pocket; mean of a minimum of 2 experiments; read-out: pXC50 (the source's name) (converted)
From the text: Materials: His-MBP-TEV-Full length human TNNI3K (hTNNI3K) was expressed in Baculokinase system and purified from amylase affinity column followed by Superdex200. The fluorescent ligand 5-({[2-({[3-({4-[(5-hydroxy-2-methylphenyl)amino]-2-pyrimidinyl}amino)phenyl]carbonyl}amino)ethyl]amino}carbonyl)-2-(6-hydroxy-3-oxo-3H-xanthen-9-yl)benzoic acid was used. The preparation of this fluorescent ligand is disclosed in U.S. Provisional Patent Application No. 61/237,815 filed Aug. 28, 2009, the disclosure of which is incorporated by reference herein. The other buffer components, including MgCl2 (Catalog Number M1028), Bis-Tris (Catalog Number B7535), DTT (Catalog Number D9779) and Chaps (Catalog Number C3023) were purchased from Sigma-Aldrich.
Biological Assay Method I:
A fluorescent polarization assay was used to determine does response of compound inhibition on hTNNI3K ATP binding.
Solution 1: Ten (10) mL of a 5 nM 5-({[2-({[3-({4-[(5-hydroxy-2-methylphenyl)amino]-2-pyrimidinyl}amino)phenyl]carbonyl}amino)ethyl]amino}carbonyl)-2-(6-hydroxy-3-oxo-3H-xanthen-9-yl)benzoic acid solution (Solution 1) was prepared by mixing 5 μL of 1M DTT and 80 μL of 10% (w/v) Chaps and 5 μL of a 10 μM 5-({[2-({[3-({4-[(5-hydroxy-2-methylphenyl)amino]-2-pyrimidinyl}amino)phenyl]carbonyl}amino) ethyl]amino}carbonyl)-2-(6-hydroxy-3-oxo-3H-xanthen-9-yl)benzoic acid stock solution into 9910 μL buffer (20 mM Tris, 15 mM MgCl2, pH 7.5). (Stock solution: 10 μM solution of 5-({[2-({[3-({4-[(5-hydroxy-2-methylphenyl)amino]-2-pyrimidinyl}amino)phenyl]carbonyl}amino)ethyl]amino}carbonyl)-2-(6-hydroxy-3-oxo-3H-xanthen-9-yl)benzoic acid in 100% DMSO)
Solution 2 was formed by mixing 53.8 μL of 2.6 μM hTNNI3K with a 6946.2 μL aliquot of Solution 1 (the above 5-({[2-({[3-({4-[(5-hydroxy-2-methylphenyl)amino]-2-pyrimidinyl}amino)phenyl]carbonyl}amino)ethyl]amino}carbonyl)-2-(6-hydroxy-3-oxo-3H-xanthen-9-yl)benzoic acid solution) to make up a 7 mL of mixture of hTNNI3K and 5-({[2-({[3-({4-[(5-hydroxy-2-methylphenyl)amino]-2-pyrimidinyl}amino)phenyl]carbonyl}amino)ethyl]amino}carbonyl)-2-(6-hydroxy-3-oxo-3H-xanthen-9-yl)benzoic acid (Solution 2).
Fifty (50) nL of inhibitors in DMSO (or DMSO controls) were stamped into a 384-well low volume Greiner black plate, followed by addition of 5 μL of Solution 1 to column 18 and 5 μL Solution 2 to columns 1-17 and 19-24 of the plate. The plate was then spun at 500 rpm for 30 seconds and incubated at room temperature for 60 minutes. After that, the fluorescent polarization was measured on Analyst (ex/em: 485/530 nm, Dichroic: 505). For dose response experiments, normalized data were fit by ABASE/XC50 and pXC50=(log((b−y)/(y−a)))/d−log(x), where x is the compound concentration and y is the % activity at specified compound concentration, a is the minimum % activity, b is the maximum % activity, and d is the Hill slope.
The pXC50s are averaged to determine a mean value, for a minimum of 2 experiments.

Structure (SMILES) | IC50 [nM]
CNS(=O)(=O)c1ccc(N(C)CC(F)(F)F)c(Nc2ncnc3cc(OC)c(OC)cc23)c1 [Example 35, 3-{[6,7-bis(methyloxy)-4-quinazolinyl]amino}-N-methyl-4-[methyl(2,2,2-trifluoroethyl)amino] benzenesulfonamide trifluoroacetate] | 1 to 10
CNS(=O)(=O)c1ccc(N(C)CC(F)(F)F)c(Nc2ncnc3cc(OC)cc(OC)c23)c1 [Example 36, 3-{[5,7-bis(methyloxy)-4-quinazolinyl]amino}-N-methyl-4-[methyl(2,2,2-trifluoroethyl)amino] benzenesulfonamide hydrochloride] | 10 to 100
CNS(=O)(=O)c1ccc(OC)c(Nc2ncnc3cc(OC)cc(OC)c23)c1 [Example 37, 3-{[5,7-bis(methyloxy)-4-quinazolinyl]amino}-N-methyl-4-(methyloxy) benzenesulfonamide hydrochloride] | 1 to 10
CNS(=O)(=O)c1ccc(F)c(Nc2ncnc3cc(OC)cc(OC)c23)c1 [Example 38, 3-{[5,7-bis(methyloxy)-4-quinazolinyl]amino}-4-fluoro-N-methylbenzenesulfonamide hydrochloride] | 10 to 100
CNS(=O)(=O)c1ccc(Cl)c(Nc2ncnc3cc(OC)cc(OC)c23)c1 [Example 39, 3-{[5,7-bis(methyloxy)-4-quinazolinyl]amino}-4-chloro-N-methylbenzenesulfonamide hydrochloride] | 10 to 100
CNS(=O)(=O)c1ccc(N2CCOCC2)c(Nc2ncnc3cc(OC)cc(OC)c23)c1 [Example 40, 3-{[5,7-bis(methyloxy)-4-quinazolinyl]amino}-N-methyl-4-(4-morpholinyl) benzenesulfonamide hydrochloride] | 10 to 100
CCOc1cc2c(Nc3cc(S(=O)(=O)NC)ccc3OCC(F)(F)F)ncnc2cc1OC [Example 42, 3-{[6-(ethyloxy)-7-(methyloxy)-4-quinazolinyl]amino}-N-methyl-4-[(2,2,2-trifluoroethyl)oxy] benzenesulfonamide hydrochloride] | 10 to 100
CNS(=O)(=O)c1ccc(OCC(F)(F)F)c(Nc2ncnc3cc(OC)c(OC(C)C)cc23)c1 [Example 44, N-methyl-3-{[6-[(1-methylethyl)oxy]-7-(methyloxy)-4-quinazolinyl]amino}-4-[(2,2,2-trifluoroethyl)oxy] benzenesulfonamide hydrochloride] | 10 to 100
CNS(=O)(=O)c1ccc(OCC(F)(F)F)c(Nc2ncnc3cc(OCCCCl)ccc23)c1 [Example 45, 3-({7-[(3-chloropropyl)oxy]-4-quinazolinyl}amino)-N-methyl-4-[(2,2,2-trifluoroethyl)oxy] benzenesulfonamide] | 10 to 100
CCOc1cc(OC)cc2ncnc(Nc3cc(S(=O)(=O)NC)ccc3OCC(F)(F)F)c12 [Example 46, 3-{[5-(ethyloxy)-7-(methyloxy)-4-quinazolinyl]amino}-N-methyl-4-[(2,2,2-trifluoroethyl)oxy] benzenesulfonamide] | 1 to 10
CNS(=O)(=O)c1ccc(OCC(F)(F)F)c(Nc2ncnc3cc(OC)cc(OC(C)C)c23)c1 [Example 47, N-methyl-3-{[5-[(1-methylethyl)oxy]-7-(methyloxy)-4-quinazolinyl]amino}-4-[(2,2,2-trifluoroethyl)oxy] benzenesulfonamide] | 10 to 100
CNS(=O)(=O)c1ccc(OCC(F)(F)F)c(Nc2ncnc3cc(OC)c(OC)c(OC)c23)c1 [Example 48, N-methyl-4-[(2,2,2-trifluoroethyl)oxy]-3-{[5,6,7-tris(methyloxy)-4-quinazolinyl]amino}benzene sulfonamide hydrochloride] | 1 to 10
CNS(=O)(=O)c1ccc(OC(C)C(F)(F)F)c(Nc2ncnc3cc(OC)cc(OC)c23)c1 (stereo not drawn) [Example 49, 3-{[5,7-bis(methyloxy)-4-quinazolinyl]amino}-N-methyl-4-[(2,2,2-trifluoro-1-methylethyl)oxy] benzenesulfonamide trifluoroacetate] | 1 to 10
CNS(=O)(=O)c1cc(Nc2ncnc3cc(OC)cc(OC)c23)c(OCC(F)(F)F)cc1F [Example 50, 5-{[5,7-bis(methyloxy)-4-quinazolinyl]amino}-2-fluoro-N-methyl-4-[(2,2,2-trifluoroethyl)oxy] benzenesulfonamide trifluoroacetate] | 10 to 100
CNS(=O)(=O)c1cc(Nc2ncnc3cc(OC)cc(OC)c23)c(OC)cc1F [Example 51, 5-{[5,7-bis(methyloxy)-4-quinazolinyl]amino}-2-fluoro-N-methyl-4-(methyloxy) benzenesulfonamide trifluoroacetate] | 10 to 100
CNS(=O)(=O)c1ccc(SC)c(Nc2ncnc3cc(OC)cc(OC)c23)c1 [Example 53, 3-{[5,7-bis(methyloxy)-4-quinazolinyl]amino}-N-methyl-4-(methylthio) benzenesulfonamide hydrochloride] | 10 to 100
CNS(=O)(=O)c1ccc(OC(F)(F)F)c(Nc2ncnc3cc(OC)cc(OC)c23)c1 [Example 54, 3-{[5,7-bis(methyloxy)-4-quinazolinyl]amino}-N-methyl-4-[(trifluoromethyl)oxy] benzenesulfonamide hydrochloride] | 1 to 10
CNS(=O)(=O)c1ccc(OC(F)(F)F)c(Nc2ncnc3cc(OC)c(OC)c(OC)c23)c1 [Example 55, N-methyl-4-[(trifluoromethyl)oxy]-3-{[5,6,7-tris(methyloxy)-4-quinazolinyl]amino}benzene sulfonamide trifluoroacetate] | 10 to 100
CNS(=O)(=O)c1cc(Nc2ncnc3cc(OC)cc(OC)c23)c(N(C)C)cc1F [Example 56, 5-{[5,7-bis(methyloxy)-4-quinazolinyl]amino}-4-(dimethylamino)-2-fluoro-N-methylbenzenesulfonamide hydrochloride] | 1 to 10
CNS(=O)(=O)c1cc(Nc2ncnc3cc(OC)c(OC)c(OC)c23)c(OCC(F)(F)F)cc1F [Example 58, 2-fluoro-N-methyl-4-[(2,2,2-trifluoroethyl)oxy]-5-{[5,6,7-tris(methyloxy)-4-quinazolinyl]amino}benzene sulfonamide trifluoroacetate] | 10 to 100
CNS(=O)(=O)c1ccc(Cl)c(Nc2ncnc3cc(OC)c(OC)c(OC)c23)c1 [Example 59, 4-chloro-N-methyl-3-{[5,6,7-tris(methyloxy)-4-quinazolinyl]amino}benzene sulfonamide trifluoroacetate] | 10 to 100
